Reference: patent US9815851B2, “Pyrrolo carboxamides as modulators of orphan nuclear receptor RAR-related orphan receptor-gamma (RORγ, NR1F3) activity and for the treatment of chronic inflammatory and autoimmune diseases” (PHENEX PHARMACEUTICALS AG, priority 2011, dated 2017)
Read-outs that look alike come from different tables or passages of the source.

Experiments:
[1] = molecular target: T1, RORγ ligand binding domain (LBD) (Homo sapiens, UniProt P51449); assay: TR-FRET Activity Assay (ligand sensing, RORγ-LBD / coactivator peptide interaction, LANCE); type: biochemical
T1 construct: made in house; host or cells: E. coli BL-21 (BL3), vector pDEST15
T1 sequence (P51449 269-508 limits assumed): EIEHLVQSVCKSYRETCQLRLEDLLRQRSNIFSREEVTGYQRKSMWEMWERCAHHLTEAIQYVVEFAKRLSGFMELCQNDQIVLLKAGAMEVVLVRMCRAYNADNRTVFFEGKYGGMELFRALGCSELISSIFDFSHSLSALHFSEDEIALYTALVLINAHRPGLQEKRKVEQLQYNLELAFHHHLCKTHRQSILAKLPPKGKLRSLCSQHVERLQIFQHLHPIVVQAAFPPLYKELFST

[2] = molecular target: T2, RORγ (UniProt P51449); assay: RORγ Gal4 Reporter Gene Assay in 293T cells (firefly and renilla luciferase); type: cell-based, human
T2 sequence (P51449 1-518): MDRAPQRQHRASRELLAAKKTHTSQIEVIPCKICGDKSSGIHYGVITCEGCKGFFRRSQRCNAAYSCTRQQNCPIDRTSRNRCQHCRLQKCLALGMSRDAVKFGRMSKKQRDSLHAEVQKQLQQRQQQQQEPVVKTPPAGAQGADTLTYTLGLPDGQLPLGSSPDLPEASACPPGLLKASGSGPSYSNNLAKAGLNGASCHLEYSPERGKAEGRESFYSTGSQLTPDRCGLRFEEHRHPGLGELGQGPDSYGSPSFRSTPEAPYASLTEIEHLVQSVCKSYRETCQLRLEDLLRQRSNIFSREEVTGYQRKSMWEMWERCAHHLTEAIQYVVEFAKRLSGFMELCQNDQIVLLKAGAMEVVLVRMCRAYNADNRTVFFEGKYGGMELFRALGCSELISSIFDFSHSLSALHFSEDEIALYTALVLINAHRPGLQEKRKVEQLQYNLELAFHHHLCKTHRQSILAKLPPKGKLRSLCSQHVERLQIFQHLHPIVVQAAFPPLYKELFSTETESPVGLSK

[3] = first value of the cell FRET/FF/REN, TR-FRET activity assay, read-out: pIC50 (FRET) (converted)
[4] = second value of the cell, Gal4 reporter gene assay in 293T cells, firefly luciferase
[5] = third value of the cell, Gal4 reporter gene assay in 293T cells, renilla normalised luciferase

## CC(C)(C)NS(=O)(=O)c1ccc(-c2cc(C(=O)NC3CCOCC3)c(F)n2CC2CCCCC2)cc1C(C)(C)C [Example 20, 5-(3-(tert-Butyl)-4-(N-(tert-butyl)sulfamoyl)phenyl)-1-(cyclohexylmethyl)-2-fluoro-N-(tetrahydro-2H-pyran-4-yl)-1H-pyrrole-3-carboxamide]
[1]; [3]
  IC50: 398 nM
[2]; [4]
  pIC50 (FF): 7.4
[2]; [5]
  pIC50 (REN): 7.5

## Cc1c(C(=O)NCCC(C)(C)C(=O)O)cc(-c2ccc(S(=O)(=O)NC(C)(C)C)c3ccccc23)n1CC1CCCCC1 [17/241]
[1]; [3]
  IC50: 1260 nM
[2]; [4]
  pIC50 (FF): 7.7
[2]; [5]
  pIC50 (REN): 7.8

## Cc1c(C(=O)N2CCC(C(=O)O)CC2)cc(-c2cc(C(C)(C)C)c3c(c2)C2(CCO3)CC2)n1CC1CCCCC1 [17/53]
[1]; [3]
  IC50: 1580 nM
[2]; [4]
  pIC50 (FF): 6.9
[2]; [5]
  pIC50 (REN): 6.9

## Cc1c(C(=O)NCCC(C)(C)C(=O)O)cc(-c2ccc(S(=O)(=O)NC(C)(C)C)c(C(F)(F)F)c2)n1CC1CCCCC1 [17/222]
[1]; [3]
  IC50: 631 nM
[2]; [4]
  pIC50 (FF): 7.4
[2]; [5]
  pIC50 (REN): 7.5

## Cc1c(S(=O)(=O)NC(C)(C)C)ccc(-c2cc(C(=O)NC3CCOCC3)c(C)n2CC2CCCCC2)c1OC(F)F [17/285]
[1]; [3]
  IC50: 631 nM
[2]; [4]
  pIC50 (FF): 7.3
[2]; [5]
  pIC50 (REN): 7.4

## CC(C)(C)c1cc(-c2cc(C(=O)N[C@H]3C[C@H](C(=O)O)C3)c(F)n2CC2CCCCC2)cc(C2(C)CC2)c1 [20/3]
[1]; [3]
  IC50: 631 nM
[2]; [4]
  pIC50 (FF): 7.3
[2]; [5]
  pIC50 (REN): 7.4

## Cc1c(C(=O)N[C@H]2C[C@H](C(=O)O)C2)cc(-c2ccc(S(=O)(=O)NC(C)(C)C)c(OC(F)(F)F)c2)n1CC1CCCCC1 [17/174]
[1]; [3]
  IC50: 200 nM
[2]; [4]
  pIC50 (FF): 7.1
[2]; [5]
  pIC50 (REN): 7.1

## Cc1c(C(=O)NCCCCN2CCOCC2)cc(-c2cc(C(C)(C)C)cc(C(C)(C)C)c2)n1CC1CCCCC1 [1/74]
[1]
  IC50: 5010 nM
[2]
  pIC50 (FF): 5.3/<4.7/<4.7
  pIC50 (REN): 5.3/<4.7/<4.7

## Cc1c(C(=O)NC2COC2)cc(-c2cc(C3(C)CC3)cc(C3(C)CC3)c2)n1CC1CCCCC1 [1/80]
[1]; [3]
  IC50: 200 nM
[2]; [4]
  pIC50 (FF): 7.5
[2]; [5]
  pIC50 (REN): 7.5

## Cc1c(C(=O)NCC2(O)CCOCC2)cc(-c2ccc(S(=O)(=O)NC(C)(C)C)c(C(C)(C)C)c2)n1CC1CCCCC1 [1/124]
[1]
  IC50: 631 nM
[2]
  pIC50 (FF): 6.2/7.5/7.5
  pIC50 (REN): 6.2/7.5/7.5

## COCCNC(=O)c1cc(-c2cc(C(C)(C)C)cc(C(C)(C)C)c2)n(CC2CCCCC2)c1C [1/64]
[1]; [3]
  IC50: 316 nM
[2]; [4]
  pIC50 (FF): 6.5/6.5/6.5
[2]; [5]
  pIC50 (REN): 6.5/6.5/6.5

## Cc1c(C(=O)NC2CCOCC2)cc(-c2ccc(-c3ccnn3C(C)C)c(C(C)(C)C)c2)n1CC1CCCCC1 [Example 26, 5-(3-(tert-Butyl)-4-(1-isopropyl-1H-pyrazol-5-yl)phenyl)-1-(cyclohexylmethyl)-2-methyl-N-(tetrahydro-2H-pyran-4-yl)-1H-pyrrole-3-carboxamide]
[1]; [3]
  IC50: 200 nM
[2]; [4]
  pIC50 (FF): 7.5
[2]; [5]
  pIC50 (REN): 7.6

## CCN(C(C)(C)C)S(=O)(=O)c1ccc(-c2cc(C(=O)NC3COC3)c(C)n2CC2CCCCC2)cc1C(C)(C)C [9/6]
[1]; [3]
  IC50: 251 nM
[2]; [4]
  pIC50 (FF): 7.7
[2]; [5]
  pIC50 (REN): 7.8

## Cc1c(C(=O)NCCCC(=O)O)cc(-c2cc(C(C)(C)C)cc(C(C)(C)C)c2)n1CC1CCCCC1 [1/69]
[1]; [3]
  IC50: 1580 nM
[2]; [4]
  pIC50 (FF): 6.8
[2]; [5]
  pIC50 (REN): 6.9

## Cc1c(C(=O)NC2CCOCC2)cc(-c2ccc(C(NC(C)(C)C)C(F)(F)F)c(C(F)(F)F)c2)n1CC1CCCCC1 (centres unmarked) [Example 25]
[1]; [3]
  IC50: 1580 nM
[2]; [4]
  pIC50 (FF): 6.3
[2]; [5]
  pIC50 (REN): 6.2

## Cc1c(C(=O)NC2CC2)cc(-c2cc(C(C)(C)C)c3c(c2)C2(CCO3)CC2)n1CC1CCCCC1 [1/92]
[1]; [3]
  IC50: 200 nM
[2]; [4]
  pIC50 (FF): 7.0
[2]; [5]
  pIC50 (REN): 6.9

## Cc1c(C(=O)NC2CCOCC2)cc(-c2ccc(S(=O)(=O)NC(C)(C)C)c(Cl)c2Cl)n1CC1CCCCC1 [17/276]
[1]
  IC50: 158 nM
[2]
  pIC50 (FF): 6.8/7.9/8.0
  pIC50 (REN): 6.8/7.9/8.0

## Cc1c(C(=O)NC2CCOCC2)cc(-c2ccc(C(=O)NC3CCCCC3)c(C(C)(C)C)c2)n1CC1CCCCC1 [6/6]
[1]
  IC50: 631 nM
[2]
  pIC50 (FF): 6.2/6.8/6.7
  pIC50 (REN): 6.2/6.8/6.7

## Cc1c(C(=O)NCC2(S(C)(=O)=O)CCOCC2)cc(-c2cc(C(C)(C)C)c3c(c2)C2(CCO3)CC2)n1CC1CCCCC1 [17/11]
[1]
  IC50: 200 nM
[2]
  pIC50 (FF): 6.7/7.2/7.2
  pIC50 (REN): 6.7/7.2/7.2

## Cc1c(C(=O)NC2CCOCC2)cc(-c2ccc(S(=O)(=O)NC(C)(C)C)c(C(C)(C)C)c2)n1CC1CCC1 [17/213]
[1]
  IC50: 631 nM
[2]
  pIC50 (FF): 6.2/7.1/7.2
  pIC50 (REN): 6.2/7.1/7.2

## Cc1c(C(=O)NCC2(O)CCOCC2)cc(-c2ccc(S(=O)(=O)NC(C)(C)C)c3ccccc23)n1CC1CCC1 [17/243]
[1]; [3]
  IC50: 631 nM
[2]; [4]
  pIC50 (FF): 7.4
[2]; [5]
  pIC50 (REN): 7.6

## Cc1c(C(=O)N[C@H]2C[C@H](C(=O)O)C2)cc(-c2ccc(S(=O)(=O)NC(C)(C)C)c3c(F)cccc23)n1CC1CCCCC1 [17/364]
[1]; [3]
  IC50: 1000 nM
[2]; [4]
  pIC50 (FF): 6.9
[2]; [5]
  pIC50 (REN): 7.0

## CCC(C)(C)NS(=O)(=O)c1ccc(-c2cc(C(=O)NC3COC3)c(C)n2CC2CCCCC2)cc1C(C)(C)C [9/7]
[1]; [3]
  IC50: 501 nM
[2]; [4]
  pIC50 (FF): 7.5
[2]; [5]
  pIC50 (REN): 7.5

## Cc1c(C(=O)NC2COC2)cc(-c2cc(CN3CCOCC3)cc(C(C)(C)C)c2)n1CC1CCCCC1 [1/108]
[1]; [3]
  IC50: 7940 nM
[2]; [4]
  pIC50 (FF): 7.2
[2]; [5]
  pIC50 (REN): 7.3

## Cc1c(C(=O)NC2CCOCC2)cc(-c2cc(C(=O)NC(C)(C)C)cc3ccccc23)n1CC1CCCCC1 [17/188]
[1]; [3]
  IC50: 794 nM
[2]; [4]
  pIC50 (FF): 6.8
[2]; [5]
  pIC50 (REN): 6.9

## Cc1c(C(=O)NC2CCOCC2)cc(-c2ccc(S(=O)(=O)N[C@H](C)C(F)(F)F)c(C(F)(F)F)c2)n1CC1CCCCC1 [17/142]
[1]; [3]
  IC50: 398 nM
[2]; [4]
  pIC50 (FF): 7.4
[2]; [5]
  pIC50 (REN): 7.6

## Cc1c(C(=O)N2CCS(=O)(=O)CC2)cc(-c2ccc(S(=O)(=O)NC(C)(C)C)c(C(C)(C)C)c2)n1CC1CCCCC1 [17/100]
[1]
  IC50: 794 nM

## Cc1c(C(=O)NC2(C(=O)O)CC2)cc(-c2cc(C(C)(C)C)c3c(c2)C2(CCO3)CC2)n1CC1CCCCC1 [17/50]
[1]
  IC50: 3160 nM

## Cc1c(C(=O)N[C@H]2C[C@](C)(C(=O)O)C2)cc(-c2cc(C(C)(C)C)cc(C3(C)CC3)c2)n1CC1CCCCC1 [17/171]
[1]
  IC50: 794 nM

## Cc1c(C(=O)NCC(C)(C)N)cc(-c2cc(C(C)(C)C)c3c(c2)C2(CCO3)CC2)n1CC1CCCCC1.Cl [17/27]
[2]
  pIC50 (FF): 5.6/6.3/6.5
  pIC50 (REN): 5.6/6.3/6.5

## COC(C)(C)c1cc(-c2cc(C(=O)NC3COC3)c(C)n2CC2CCCCC2)cc(C(C)(C)C)c1 [1/107]
[1]
  IC50: 794 nM

## Cc1c(C(=O)NCC(C)(C)O)cc(-c2cc(C(=O)N(C)C(C)(C)C)cc(C(C)(C)C)c2)n1CC1CCCCC1 [15/7]
[1]
  IC50: 1260 nM

## Cc1c(C(=O)NCC2CNCCO2)cc(-c2cc(C(C)(C)C)c3c(c2)C2(CCO3)CC2)n1CC1CCCCC1.Cl (centres unmarked) [17/7]
[2]
  pIC50 (FF): 5.5/<4.7/<4.7
  pIC50 (REN): 5.5/<4.7/<4.7

## COCOc1ccc(-c2cc(C(=O)NC3COC3)c(C)n2CC2CCCCC2)cc1C(C)(C)C [1/24]
[1]
  IC50: 631 nM

## Cc1c(C(=O)NCCCNS(C)(=O)=O)cc(-c2cc(C(C)(C)C)c3c(c2)C2(CCO3)CC2)n1CC1CCCCC1 [17/3]
[1]
  IC50: 398 nM
